Test results from PubChem BioAssay AID330 (DTP/NCI, 2004).
“And” between values parts separate entries of the source, which are not always exact repeats. Identical values can stand only once. Toxic doses and inconclusive results are not listed. Rule for the calls: active = survival T/C of 150% or more; inactive = T/C below 125% in these data.

Test system: P388 leukemia ip, CD2F1 mice, survival T/C
Assay: NCI In Vivo Anticancer Drug Screen. Data for tumor model P388 Leukemia (intraperitoneal) in CD2F1 (CDF1) mice
Settings: endpoint: median survival time, higher = longer survival
Procedure, shortened: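 Mice carrying the transplanted tumor received test compound or vehicle. Survival was recorded in each group, and the value is the treated-group measurement divided by that of the vehicle-treated control group.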

[1] = dose: 50.0 mg/kg/injection, schedule: Q01DX005 (ip), vehicle: Klucel (hydroxypropylcellulose) (HPC)
[2] = dose: 100.0 mg/kg/injection, schedule: Q01DX005 (ip), vehicle: Klucel (hydroxypropylcellulose) (HPC)
[3] = dose: 200.0 mg/kg/injection, schedule: Q01DX005 (ip), vehicle: Klucel (hydroxypropylcellulose) (HPC)
[4] = dose: 100.0 mg/kg/injection, schedule: Q01DX009 (ip), vehicle: Klucel (hydroxypropylcellulose) (HPC)
[5] = dose: 200.0 mg/kg/injection, schedule: Q01DX009 (ip), vehicle: Klucel (hydroxypropylcellulose) (HPC)
[6] = dose: 50.0 mg/kg/injection, schedule: Q01DX009 (ip), vehicle: Klucel (hydroxypropylcellulose) (HPC)
[7] = dose: 100.0 mg/kg/injection, schedule: Q04DX003 (ip), vehicle: saline
[8] = dose: 200.0 mg/kg/injection, schedule: Q04DX003 (ip), vehicle: saline
[9] = dose: 50.0 mg/kg/injection, schedule: Q01DX009 (ip), vehicle: saline
[10] = dose: 100.0 mg/kg/injection, schedule: Q01DX009 (ip), vehicle: saline
[11] = dose: 60.0 mg/kg/injection, schedule: Q01DX005 (ip), vehicle: saline with Tween-80
[12] = dose: 120.0 mg/kg/injection, schedule: Q01DX005 (ip), vehicle: saline with Tween-80
[13] = dose: 240.0 mg/kg/injection, schedule: Q01DX005 (ip), vehicle: saline with Tween-80
[14] = dose: 60.0 mg/kg/injection, schedule: Q01DX005 (ip), vehicle: saline
[15] = dose: 120.0 mg/kg/injection, schedule: Q01DX005 (ip), vehicle: saline
[16] = dose: 240.0 mg/kg/injection, schedule: Q01DX005 (ip), vehicle: saline
[17] = dose: 25.0 mg/kg/injection, schedule: Q01DX009 (ip), vehicle: saline with Tween-80
[18] = dose: 50.0 mg/kg/injection, schedule: Q01DX009 (ip), vehicle: saline with Tween-80
[19] = dose: 100.0 mg/kg/injection, schedule: Q01DX009 (ip), vehicle: saline with Tween-80
[20] = dose: 200.0 mg/kg/injection, schedule: Q01DX009 (ip), vehicle: saline with Tween-80

Measured: T/C

Cc1[nH]ccc(=O)c1OC(=O)C12CC3CC(CC(C3)C1)C2
inactive: [1] 94 % of control and 98 % of control | [2] 91 % of control and 97 % of control | [3] 101 % of control and 95 % of control | dose: 400.0 mg/kg/injection, schedule: Q01DX005 (ip), vehicle: Klucel (hydroxypropylcellulose) (HPC) 103 % of control and 98 % of control

Cc1ccccc1C1OC2=C(Nc3ccc(Cl)cc3N2)C1=O (centres undefined)
inactive: dose: 60.0 mg/kg/injection, schedule: Q01DX005 (ip), vehicle: Klucel (hydroxypropylcellulose) (HPC) 101 % of control | dose: 120.0 mg/kg/injection, schedule: Q01DX005 (ip), vehicle: Klucel (hydroxypropylcellulose) (HPC) 91 % of control | dose: 240.0 mg/kg/injection, schedule: Q01DX005 (ip), vehicle: Klucel (hydroxypropylcellulose) (HPC) 101 % of control

O=C(Nc1ccc(Nc2ccncc2)cc1)c1ccc([N+](=O)[O-])cc1
inactive: [4] 90 % of control | [5] 100 % of control | dose: 400.0 mg/kg/injection, schedule: Q01DX009 (ip), vehicle: Klucel (hydroxypropylcellulose) (HPC) 90 % of control

Cc1ccc2[nH]c(=S)n(CCc3ccccc3)c(=O)c2c1
inactive: [6] 99 % of control | [4] 97 % of control | [5] 97 % of control

COc1ccc(C2C3CCCC(C3=O)C(c3ccc(OC)cc3)N2C)cc1 (centres undefined)
inactive: [7] 99 % of control | [8] 97 % of control | dose: 400.0 mg/kg/injection, schedule: Q04DX003 (ip), vehicle: saline 96 % of control

Cc1ncc(Cn2c(C)c(CCO)sc2=S)c(N)n1
inactive: [9] 99 % of control | [10] 101 % of control | dose: 200.0 mg/kg/injection, schedule: Q01DX009 (ip), vehicle: saline 108 % of control

COCCOCOCCCC#C[Si](C)(C)C
inactive: [11] 100 % of control | [12] 106 % of control | [13] 106 % of control

O=C(NNC(=S)NC1OC(CO)C(O)C(O)C1O)c1cccc(C(=O)NNC(=S)NC2OC(CO)C(O)C(O)C2O)n1 (centres undefined)
inactive: [11] 97 % of control | [14] 106 % of control | [12] 100 % of control | [15] 106 % of control | [13] 96 % of control | [16] 101 % of control

[N-]=[N+]=Nc1ccnc2c(C(F)(F)F)cccc12
inactive: [11] 108 % of control | [12] 100 % of control | [13] 92 % of control

C/C=C1/CN2CCc3c([nH]c4ccccc34)C2CC1C(Cc1c[n+]2c(c3[nH]c4ccccc4c13)CC1C(C(=O)OC)=COC(C)C1C2)C(=O)OC (centres undefined)
inactive: [17] 91 % of control | [18] 89 % of control | [19] 90 % of control

[Cl][Pt+2][Cl].[NH-]c1ccc2[nH]c(=S)sc2c1.[NH-]c1ccc2[nH]c(=S)sc2c1
inactive: dose: 100.0 mg/kg/injection, schedule: Q01DX001 (sc), vehicle: olive oil, sesame oil, peanut oil 104 % of control | dose: 200.0 mg/kg/injection, schedule: Q01DX001 (sc), vehicle: olive oil, sesame oil, peanut oil 114 % of control | dose: 400.0 mg/kg/injection, schedule: Q01DX001 (sc), vehicle: olive oil, sesame oil, peanut oil 104 % of control

CC(C)(C)SSC(=S)C1CCCCC1
inactive: dose: 25.0 mg/kg/injection, schedule: Q01DX005 (ip), vehicle: saline with Tween-80 108 % of control | dose: 50.0 mg/kg/injection, schedule: Q01DX005 (ip), vehicle: saline with Tween-80 106 % of control and 116 % of control | dose: 100.0 mg/kg/injection, schedule: Q01DX005 (ip), vehicle: saline with Tween-80 108 % of control and 118 % of control | dose: 200.0 mg/kg/injection, schedule: Q01DX005 (ip), vehicle: saline with Tween-80 117 % of control

NNC(=O)CNC(=O)Nc1n[nH]c(=S)s1
inactive: [18] 101 % of control | [19] 95 % of control

Cc1ccc2c(c1)C(=O)C(CN1CCCCC1)CO2 (centres undefined)
inactive: [7] 108 % of control | [8] 108 % of control

CCOC(=O)CC/C(=C\NC(=O)c1ccccc1)NC(=O)c1ccccc1
inactive: [11] 96 % of control | [12] 88 % of control | [13] 90 % of control

CCOC(=O)C1=C(O)C(=O)C=C(O)C1=N
inactive: [14] 94 % of control | [15] 94 % of control | [16] 97 % of control

Cc1ccc(NCC2CCCN3CCCCC23)c2c(=O)c3cc(O)ccc3sc12 (centres undefined)
inactive: dose: 100.0 mg/kg/injection, schedule: Q04DX002 (ip), vehicle: saline with Tween-80 97 % of control | dose: 200.0 mg/kg/injection, schedule: Q04DX002 (ip), vehicle: saline with Tween-80 102 % of control

O=C1CN(CCCO)CC(=O)N2Cc3ccccc3CN12
inactive: dose: 50.0 mg/kg/injection, schedule: Q01DX005 (ip), vehicle: saline 94 % of control | dose: 100.0 mg/kg/injection, schedule: Q01DX005 (ip), vehicle: saline 100 % of control | dose: 200.0 mg/kg/injection, schedule: Q01DX005 (ip), vehicle: saline 99 % of control

CN(C)CCCNc1nnc(NCCCN(C)C)c2cc3ccccc3cc12
inactive: dose: 7.5 mg/kg/injection, schedule: Q01DX005 (ip), vehicle: saline 98 % of control | dose: 15.0 mg/kg/injection, schedule: Q01DX005 (ip), vehicle: saline 94 % of control | dose: 30.0 mg/kg/injection, schedule: Q01DX005 (ip), vehicle: saline 110 % of control

CCn1c(=O)c2[nH]c(=S)[nH]c2n(C2CC2)c1=O
inactive: [6] 97 % of control | [4] 101 % of control | [5] 113 % of control

COc1cc2c(cc1OC)C(Cc1ccc(OC)c(Oc3ccc(CC4c5cc(OC)c(OC)c(O)c5CCN4C)cc3)c1)N(C)CC2 (centres undefined)
inactive: dose: 20.0 mg/kg/injection, schedule: Q01DX009 (ip), vehicle: Klucel (hydroxypropylcellulose) (HPC) 106 % of control | dose: 40.0 mg/kg/injection, schedule: Q01DX009 (ip), vehicle: Klucel (hydroxypropylcellulose) (HPC) 107 % of control | dose: 80.0 mg/kg/injection, schedule: Q01DX009 (ip), vehicle: Klucel (hydroxypropylcellulose) (HPC) 111 % of control

c1ccc(N=NC2=NN(c3ccccc3)CS2)cc1
inactive: [17] 105 % of control and 106 % of control | [18] 101 % of control and 102 % of control | [19] 101 % of control and 102 % of control | [20] 101 % of control and 106 % of control

COC(=O)[C@@H]1[C@H]2CS(=O)(=O)C[C@H]2[C@@H]1C(=O)OC
inactive: [1] 99 % of control | [2] 96 % of control | [3] 100 % of control

N=C(N)N=Nc1cc(O)c(NN=C(N)N)cc1O
inactive: dose: 1.56 mg/kg/injection, schedule: Q01DX005 (ip), vehicle: saline with Tween-80 102 % of control | dose: 3.13 mg/kg/injection, schedule: Q01DX005 (ip), vehicle: saline with Tween-80 99 % of control | dose: 6.25 mg/kg/injection, schedule: Q01DX005 (ip), vehicle: saline with Tween-80 102 % of control

c1ccc(-c2cc(CNc3nc4ccccc4s3)on2)cc1
inactive: [6] 99 % of control | [4] 99 % of control | [5] 99 % of control

CCC(C)C(C)CNC12CN3CN(CN(C3)C1)C2 (centres undefined)
inactive: dose: 50.0 mg/kg/injection, schedule: Q01DX001 (ip), vehicle: saline 103 % of control | dose: 100.0 mg/kg/injection, schedule: Q01DX001 (ip), vehicle: saline 104 % of control | dose: 200.0 mg/kg/injection, schedule: Q01DX001 (ip), vehicle: saline 108 % of control

ClC1=CC(Cl)=C2N=C(C(Cl)(Cl)Cl)N=C3N=C(C(Cl)(Cl)Cl)N=C1N32
inactive: dose: 15.0 mg/kg/injection, schedule: Q01DX005 (ip), vehicle: Klucel + Tween-80 101 % of control | dose: 30.0 mg/kg/injection, schedule: Q01DX005 (ip), vehicle: Klucel + Tween-80 95 % of control | dose: 60.0 mg/kg/injection, schedule: Q01DX005 (ip), vehicle: Klucel + Tween-80 99 % of control and 100 % of control

O=C(Nc1cccc(Cl)c1)Nc1ccc[nH]c1=O
inactive: [18] 101 % of control | [19] 109 % of control | [20] 109 % of control

C#CCN(C)Cc1cc(OC)c(OC)c(OC)c1
inactive: dose: 12.5 mg/kg/injection, schedule: Q01DX009 (ip), vehicle: saline 102 % of control | dose: 25.0 mg/kg/injection, schedule: Q01DX009 (ip), vehicle: saline 94 % of control | [9] 102 % of control and 86 % of control | [10] 95 % of control and 96 % of control

O=C(CCc1nc2ccccc2[nH]1)C1Cc2ccccc2C1=O (centres undefined)
inactive: [11] 103 % of control | [12] 104 % of control | [13] 103 % of control
